# Laboratory results taken from patent publication US4654326A, “Inhibition of plant viruses with oligonucleotides” (priority 1984, dated 1987).
# Entries after “also recorded” stand apart in the source; their conditions may differ. Where two headings read alike, the source gives them in different places.
# Legend:
# TMV [1] = experiment: TMV replication in TMV-infected tobacco leaf discs (ELISA); assay type: cell-based, tobacco mosaic virus; conditions: up to 2×10^-7 M (FIG. 1)
# Method: Plant material treatment and measurement of infectivity. Partially purified AVF was prepared. The growth of N. glutinosa, N. tabacum Var. "Samsun", N. tabacum cv. Samsun NN, and preparation and inoculation of protoplasts were as described. To evaluate the effect of 2',5'-cores, nucleotides and nucleosides on TMV replication, various concentrations were added to 10 ml of protoplast suspension (1×10^5 cells/ml) at various times after inoculation with TMV. Protoplasts were incubated at 25° C. under continuous illumination of about 1500 Lx. At various times protoplasts were collected by centrifugation and homogenized. The homogenate was inoculated onto 12 half-leaves of N. glutinosa plants and compared to a standard solution of purified TMV on the opposite half-leaves. Lesion counts were adjusted to 10^6 live protoplasts and calibrated. Control protoplasts (no Nucleotides added) were assayed simultaneously. The assays for antiviral activity on TMV-infected tobacco leaf discs were done by enzyme-linked immunosorbent assay. The ability of the 2',5'-cores, nucleosides, and nucleotides to inhibit TMV replication in the intact plant was determined by infectivity tests as follows. […]
# TMV-infected tobacco leaf discs, treatment and TMV determination. […] Discs were removed at various times after TMV inoculation and their TMV content was determined. […]
# TMV [2] = experiment: Inhibition of TMV replication in intact N. glutinosa leaves (local lesion infectivity test); assay type: in vivo, tobacco mosaic virus; conditions: for inhibition at 1 µM: Tobacco mosaic virus, 48 h, read-out: Inhibition of TMV replication in N. glutinosa leaves; for Inhibition of TMV replication in N. glutinosa leaves: 1 × 10^-6 M in the infecting solution, 48 hours after infection (Table 3)
# TMV [3] = experiment: Inhibition of TMV replication in tobacco protoplasts (homogenates assayed for local lesions); assay type: cell-based, tobacco mosaic virus; conditions: for inhibition at 0.1 µM: Tobacco mosaic virus, 1 × 10^-7 M, added within 3 hours of infection, average of four experiments
# Method: Plant material treatment and measurement of infectivity. Partially purified AVF was prepared. The growth of N. glutinosa, N. tabacum Var. "Samsun", N. tabacum cv. Samsun NN, and preparation and inoculation of protoplasts were as described. To evaluate the effect of 2',5'-cores, nucleotides and nucleosides on TMV replication, various concentrations were added to 10 ml of protoplast suspension (1×10^5 cells/ml) at various times after inoculation with TMV. Protoplasts were incubated at 25° C. under continuous illumination of about 1500 Lx. At various times protoplasts were collected by centrifugation and homogenized. The homogenate was inoculated onto 12 half-leaves of N. glutinosa plants and compared to a standard solution of purified TMV on the opposite half-leaves. Lesion counts were adjusted to 10^6 live protoplasts and calibrated. Control protoplasts (no Nucleotides added) were assayed simultaneously. The assays for antiviral activity on TMV-infected tobacco leaf discs were done by enzyme-linked immunosorbent assay. The ability of the 2',5'-cores, nucleosides, and nucleotides to inhibit TMV replication in the intact plant was determined by infectivity tests as follows. Solutions containing 5 μg/ml TMV, 0.1 g carborundum (100 Tyler mesh), and 2',5'-cores, nucleosides, or nucleotides were applied onto 12 half-leaves of N. glutinosa. The remaining half-leaves were controls (inoculated with a solution containing no nucleotides). The infection was allowed to proceed 48 hours under continuous illumination.
# the TMVinfected protoplasts within 3 hours of infection.
# ^b Average of four experiments.
# by the 2',5cores, nucleosides and nucleotides was calculated as the
# percent of local leasions produced in N. glutinosa treated by homogenates
# of protoplasts compared to nontreated protoplasts.
# N. glutinosa = assay type: in vivo; conditions: non-infected plants, 1×10^-6 M, two week period
# Method: Effect of 2',5'-adenylate trimer core and its analogs on TMV replication in intact plants. […] The cores inhibited the formation of local lesions following TMV infection by 89-99% (Table 3). […] Non-infected plants were treated with 1×10^-6 M 2',5'adenylate trimer core, 2',5'-cordycepin trimer core, 2',5'-A-A-ara-A, and 2',5'-A-A-Tu (data not shown).
# [4] = read-out: Inhibition of TMV replication after 24 hr
# [5] = read-out: Inhibition of TMV replication after 48 hr
# [6] = read-out: Inhibition of TMV replication after 72 hr
# [7] = 1×10^-6 M in the TMV-infecting solution
compound,measurement,setting,value
Nc1ncnc2c1ncn2[C@@H]1O[C@H](COP(=O)(O)O)[C@@H](O)[C@H]1O [AMP],Inhibition of TMV replication in tobacco leaf discs (in words),TMV [1],no inhibition of TMV replication
same,inhibition at 1 µM,TMV [2],10%
same,Inhibition of TMV replication in protoplasts (in words),TMV [3],less inhibitory; also recorded: some inhibition of TMV replication
same,inhibition at 0.1 µM,TMV [3]; [4],22%
same,inhibition at 0.1 µM,TMV [3]; [5],33%
"Nc1ncnc2c1ncn2[C@@H]1O[C@H](CO)[C@@H](O)[C@H]1O [Adenosine, adenosine]",Inhibition of TMV replication in tobacco leaf discs (in words),TMV [1],no inhibition of TMV replication
same,inhibition at 1 µM,TMV [2],0%
same,Inhibition of TMV replication in protoplasts (in words),TMV [3],less inhibitory
same,inhibition at 0.1 µM,TMV [3]; [4],14%
same,inhibition at 0.1 µM,TMV [3]; [5],0%
same,Inhibition of TMV replication in protoplasts (in words),TMV [3]; listed as adenosine,some inhibition of TMV replication
Nc1ncnc2c1ncn2[C@@H]1O[C@H](COP(=O)(O)O)[C@@H](O)[C@@H]1O [Ara-AMP],inhibition at 1 µM,TMV [2],0%
Nc1ncnc2c1ncn2[C@@H]1O[C@H](CO)[C@@H](O)[C@@H]1O [Ara-a],inhibition at 1 µM,TMV [2],0%
"Nc1ncnc2c1ncn2[C@@H]1O[C@H](COP(=O)(O)O)C[C@H]1O [Cordycepin monophosphate, Cordycepin 5'-monophosphate]",inhibition at 1 µM,TMV [2],0%
"Nc1ncnc2c1ncn2[C@@H]1O[C@H](CO)C[C@H]1O [Cordycepin, cordycepin]",inhibition at 1 µM,TMV [2],0%
same,Inhibition of TMV replication in protoplasts (in words),TMV [3],less inhibitory
same,inhibition at 0.1 µM,TMV [3]; [5],21%
same,inhibition at 0.1 µM,TMV [3]; [6],32%
"OC[C@H]1O[C@@H](n2cnc3c(O)ncnc32)[C@H](O)[C@@H]1O [Inosine, inosine]",inhibition at 1 µM,TMV [2],0%
same,Inhibition of TMV replication in protoplasts (in words),TMV [3],less inhibitory
same,inhibition at 0.1 µM,TMV [3]; [5],22%
same,inhibition at 0.1 µM,TMV [3]; [6],25%
"Nc1ncnc2c1ccn2[C@@H]1O[C@H](COP(=O)(O)O)[C@@H](O)[C@H]1O [TuMP, tubercidin 5'-monophosphate]",inhibition at 1 µM,TMV [2],0%
"Nc1ncnc2c1ccn2[C@@H]1O[C@H](CO)[C@@H](O)[C@H]1O [Tubercidin, tubercidin]",inhibition at 1 µM,TMV [2],0%
"adenylyl-(2' 5')-adenylyl-(2' 5')-9-β-D-arabinofuranosyladenine [2',5'-A-A-ara-A]",Inhibition of TMV replication in N. glutinosa (in words),TMV [2]; [7],potent inhibitors of TMV replication
same,Inhibition of TMV replication in N. glutinosa leaves,TMV [2],94%
same,Inhibition of TMV replication in N. glutinosa (in words),TMV [2]; no single concentration stated,inhibition of TMV replication
same,Inhibition of TMV replication in N. glutinosa (in words),"TMV [2]; no single concentration stated, listed as A-A-ara-A",also inhibited TMV replication
same,Toxicity (chlorosis or necrosis),N. glutinosa,No toxicity (chlorosis or necrosis) was observed
"adenylyl-(2' 5')-adenylyl-(2' 5)-tubercidin [2',5'-A-A-Tu]",Inhibition of TMV replication in N. glutinosa (in words),TMV [2]; [7],potent inhibitors of TMV replication
same,Inhibition of TMV replication in N. glutinosa leaves,TMV [2],95%
same,Inhibition of TMV replication in N. glutinosa (in words),TMV [2]; no single concentration stated,also inhibited TMV replication
same,Toxicity (chlorosis or necrosis),N. glutinosa,No toxicity (chlorosis or necrosis) was observed
